Tests used:
CRBN-DDB1 = CRBN-DDB1 (Homo sapiens, UniProt Q96SW2); assay: Compound binding to CRBN by HTRF assay; conditions: CRBN-DDB1 2.5 nM, Cy5-Thalidomide 100 nM probe; Ki from geometric mean of IC50 by Cheng-Prustoff transformation
Experimental: Compound activity was monitored in a Homogenous Time-Resolved Fluorescence (HTRF) assay using 1-[5-({2-[2-(2-{[2-(2,6-dioxopiperidin-3-yl)-1,3-dioxo-2,3-dihydro-1H-isoindol-4-yl]oxy}acetamido)ethoxy]ethyl}carbamoyl)pentyl]-3,3-dimethyl-2-[(1E,3E)-5-[(2E)-1,3,3-trimethyl-5-sulfo-2,3-dihydro-1H-indol-2-ylidene]penta-1,3-dien-1-yl]-3H-indol-1-ium-5-sulfonate as a fluorescent probe. Biochemical assays were conducted in Greiner white 384 well HiBase plates (Cat. No 784075-25) in 10 μL total volume. A one pot detection solution of CRBN-DDB1 (2.5 nM), Anti-His Terbium Cryptate Gold (1×, PerkinElmer Cat. #: 61HI2TLB), and Cy5-Thalidomide (100 nM, Tenova Cat.: T52461) was prepared in 20 mM HEPES, 20 mM NaCl, 0.2 mM TCEP, 0.2 mM EDTA, and 0.005% Tween20 was dispensed to each assay plate. Compounds were stored in dry, ambient temperatures at 10 mM. A 10-point, 1:3 dilution series was prepared from 10 mM stock concentrations in Echo-compatible LDV plates. 10 nL of each compound dilution series was dispensed into assays wells using an Echo 650 (Labcyte inc. USA). 10 nL of 10 mM Lenalidomide was transferred into the active-control wells for the assay and 10 nL of DMSO was transferred into the neutral-control wells. The assay was then allowed to incubate for 30 min at ambient temperature after transferring compound. Plate measurements were taken on a Pherastar FSX (BMG Labtech, Germany) using the HTRF Red filter (Ex. 337 nm, em1:620 nm, em2:665 nm) (Flashes: 50, Integration time: 60-400 us, Z-height: 10 mm, Ratio-multipler: 10,000). The HTRF signal was then subsequently normalized to the neutral and active controls. Analysis and IC50 values were derived using KNIME analytics (KNIME Zurich) transformation and fitting within Collaborative Drug Discovery (Collaborative Drug Discovery USA). Ki was derived from the geometric mean of the IC50 values using the Cheng-Prustoff transformation.

CDK2 = target: T1, CDK2 (Homo sapiens, UniProt P24941); assay: CDK2 HiBiT assay (degradation, Dmax); assay type: cell-based; conditions: HEK293 clonal lines with CRISPR KI HiBiT tag on CDK2, stably expressing LgBiT; 24 hours incubation
T1 construct: HEK293 clonal lines with CRISPR KI HiBiT tag on CDK2 proteins; host or cells: HEK293 clonal line with CRISPR knock-in HiBiT on CDK2, stably expressing LgBiT
Experimental: HEK293 clonal lines with CRISPR KI HiBiT tag on CDK2 proteins and stably expressing LgBiT protein were obtained from Promega (Madison, WI). Cells were plated at 5000 cells per well using Multiflo (BioTek) in 384-well white solid bottom plates (Corning, 3570BC) in 25 ul volume in DMEM media (DMEM, high glucose, HEPES, no phenol red (ThermoFisher Scientific, 21063029)) containing 10% FBS (Corning, 35-075-CV), 1% Penicillin/Streptomycin (ThermoFisher Scientific, 15140-122). Cells were incubated for 16 hours at 37° C., 5% CO2. 75 nL of a compound at 30 μM were dosed into the plate using an Echo® 650 liquid handler (Labcyte). Cells were incubated at 37° C., 5% CO2 for 24 hours. 5 ul of HiBiT Lysis Reagent (Promega, N3030) is added using Combi Multidrop (ThermoFisher Scientific), plates are incubated for 15′ at 37° C., 5% CO2 and then signal was read on a Pherastar FSX using “LUM plus” optic module.
Analysis was performed in Scinamic (Scinamic, Cambridge, MA). Luminescence response (R) was calculated by the formula: response=100*(S−N)/(P−N) where S is the signal of the well, N and P the mean negative and positive control values respectively of the same plate. The luminescence response was then fitted in Scinamic using a 3-parameter agonist logistic fit (hillslope=1, EC50>0, top/bottom unconstrained).

Chain of CRBN-DDB1 (Q96SW2 whole entry): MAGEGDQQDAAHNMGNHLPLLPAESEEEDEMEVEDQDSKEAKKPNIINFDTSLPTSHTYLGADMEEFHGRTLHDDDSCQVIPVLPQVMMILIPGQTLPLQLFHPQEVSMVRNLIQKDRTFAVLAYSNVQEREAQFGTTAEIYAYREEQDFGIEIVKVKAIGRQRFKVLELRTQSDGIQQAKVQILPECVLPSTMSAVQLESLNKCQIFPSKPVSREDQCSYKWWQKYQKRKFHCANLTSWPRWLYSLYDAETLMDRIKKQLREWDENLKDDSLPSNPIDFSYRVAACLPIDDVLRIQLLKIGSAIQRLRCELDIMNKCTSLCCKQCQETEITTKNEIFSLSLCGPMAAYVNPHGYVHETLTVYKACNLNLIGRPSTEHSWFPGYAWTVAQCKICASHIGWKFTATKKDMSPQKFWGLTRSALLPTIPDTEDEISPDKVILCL
Chain of CRBN-DDB1 (Q16531 whole entry partner): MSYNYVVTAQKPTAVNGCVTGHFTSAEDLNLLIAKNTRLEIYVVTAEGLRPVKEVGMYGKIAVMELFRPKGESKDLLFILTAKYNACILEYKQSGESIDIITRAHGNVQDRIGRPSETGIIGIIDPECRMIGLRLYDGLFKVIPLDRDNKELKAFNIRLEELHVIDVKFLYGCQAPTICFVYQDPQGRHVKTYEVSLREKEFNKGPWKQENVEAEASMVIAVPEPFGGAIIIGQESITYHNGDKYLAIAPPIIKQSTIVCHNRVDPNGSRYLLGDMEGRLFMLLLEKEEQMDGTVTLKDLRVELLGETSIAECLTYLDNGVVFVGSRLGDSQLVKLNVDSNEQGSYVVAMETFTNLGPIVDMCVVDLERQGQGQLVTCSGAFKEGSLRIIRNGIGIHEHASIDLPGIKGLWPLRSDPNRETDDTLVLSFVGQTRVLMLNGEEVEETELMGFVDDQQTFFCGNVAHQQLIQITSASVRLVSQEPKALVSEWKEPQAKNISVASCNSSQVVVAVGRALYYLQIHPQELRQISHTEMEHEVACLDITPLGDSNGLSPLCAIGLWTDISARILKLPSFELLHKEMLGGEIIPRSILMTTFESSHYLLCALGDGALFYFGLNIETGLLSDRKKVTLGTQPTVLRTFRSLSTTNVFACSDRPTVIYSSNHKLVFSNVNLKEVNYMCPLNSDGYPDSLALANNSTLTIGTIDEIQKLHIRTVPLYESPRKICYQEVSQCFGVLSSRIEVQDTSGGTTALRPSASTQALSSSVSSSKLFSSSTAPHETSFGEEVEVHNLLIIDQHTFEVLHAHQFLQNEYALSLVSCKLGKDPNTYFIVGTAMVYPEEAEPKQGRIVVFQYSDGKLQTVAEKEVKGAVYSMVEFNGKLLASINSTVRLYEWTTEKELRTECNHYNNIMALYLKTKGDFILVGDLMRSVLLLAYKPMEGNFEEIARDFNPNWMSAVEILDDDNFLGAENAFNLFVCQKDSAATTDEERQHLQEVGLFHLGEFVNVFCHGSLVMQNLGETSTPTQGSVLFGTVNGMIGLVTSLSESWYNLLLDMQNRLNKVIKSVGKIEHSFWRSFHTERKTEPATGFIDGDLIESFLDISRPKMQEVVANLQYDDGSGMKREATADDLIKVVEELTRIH

Row | Compound | Ki (CRBN-DDB1) [nM] | Dmax (CDK2) [%]
1 | O=C1CCC(N2Cc3ccc(CNC(=O)OCc4ccc(C#CC(F)(F)F)cc4)cc3C2=O)C(=O)N1 (stereo not drawn) [Compound 50, [4-(3,3,3-trifluoroprop-1-yn-1-yl)phenyl]methyl N-{[2-(2,6-dioxopiperidin-3-yl)-3-oxo-2,3-dihydro-1H-isoindol-5-yl]methyl}carbamate] | 100 to 1000 | 10 to 50
2 | O=C1CCC(N2Cc3ccc(CNC(=O)OCc4cccc(-c5ccc(F)cc5)c4)cc3C2=O)C(=O)N1 (stereo not drawn) [Compound 51, {4′-fluoro-[1,1′-biphenyl]-3-yl}methyl N-{[2-(2,6-dioxopiperidin-3-yl)-3-oxo-2,3-dihydro-1H-isoindol-5-yl]methyl}carbamate] | 100 to 1000 | 10 to 50
3 | O=C1CCC(N2Cc3ccc(CNC(=O)OCc4ccc(CN5CCCCC5)cc4)cc3C2=O)C(=O)N1 (stereo not drawn) [Compound 53, {4-[(piperidin-1-yl)methyl]phenyl}methyl N-{[2-(2,6-dioxopiperidin-3-yl)-3-oxo-2,3-dihydro-1H-isoindol-5-yl]methyl}carbamate] | 100 to 1000 | ≤ 10
4 | O=C1CCC(N2Cc3ccc(CNC(=O)OCc4cccc(OCC(F)(F)F)c4)cc3C2=O)C(=O)N1 (stereo not drawn) [Compound 54, [3-(2,2,2-trifluoroethoxy)phenyl]methyl N-{[2-(2,6-dioxopiperidin-3-yl)-3-oxo-2,3-dihydro-1H-isoindol-5-yl]methyl}carbamate] | 100 to 1000 | 10 to 50
5 | O=C1CCC(N2Cc3ccc(CNC(=O)OCc4ccc(C(F)(F)F)cc4)cc3C2=O)C(=O)N1 (stereo not drawn) [Compound 59, [4-(trifluoromethyl)phenyl]methyl N-{[2-(2,6-dioxopiperidin-3-yl)-3-oxo-2,3-dihydro-1H-isoindol-5-yl]methyl}carbamate] | 100 to 1000 | 10 to 50
6 | O=C1CCC(N2Cc3ccc(CNC(=O)OCc4ccc(OCC(F)(F)F)nc4)cc3C2=O)C(=O)N1 (stereo not drawn) [Compound 61, [6-(2,2,2-trifluoroethoxy)pyridin-3-yl]methyl N-{[2-(2,6-dioxopiperidin-3-yl)-3-oxo-2,3-dihydro-1H-isoindol-5-yl]methyl}carbamate] | ≤ 100 | 10 to 50
7 | O=C1CCC(N2Cc3ccc(CNC(=O)OCc4ccc(OCC(F)(F)F)cc4)cc3C2=O)C(=O)N1 (stereo not drawn) [Compound 62, [4-(2,2,2-trifluoroethoxy)phenyl]methyl N-{[2-(2,6-dioxopiperidin-3-yl)-3-oxo-2,3-dihydro-1H-isoindol-5-yl]methyl}carbamate] | ≤ 100 | 10 to 50
8 | CC(C)(c1ccc(COC(=O)NCc2ccc3c(c2)C(=O)N(C2CCC(=O)NC2=O)C3)cc1)C(F)(F)F (stereo not drawn) [Compound 63, [4-(1,1,1-trifluoro-2-methylpropan-2-yl)phenyl]methyl N-{[2-(2,6-dioxopiperidin-3-yl)-3-oxo-2,3-dihydro-1H-isoindol-5-yl]methyl}carbamate] | ≤ 100 | 10 to 50
9 | O=C1CCC(N2Cc3ccc(CNC(=O)OCc4ccc(C5CC5)cc4)cc3C2=O)C(=O)N1 (stereo not drawn) [Compound 64, (4-cyclopropylphenyl)methyl N-{[2-(2,6-dioxopiperidin-3-yl)-3-oxo-2,3-dihydro-1H-isoindol-5-yl]methyl}carbamate] | 100 to 1000 | 10 to 50
10 | O=C1CCC(N2Cc3ccc(CNC(=O)OCc4ccc(OC5CCOCC5)nc4)cc3C2=O)C(=O)N1 (stereo not drawn) [Compound 65, [6-(oxan-4-yloxy)pyridin-3-yl]methyl N-{[2-(2,6-dioxopiperidin-3-yl)-3-oxo-2,3-dihydro-1H-isoindol-5-yl]methyl}carbamate] | ≤ 100 | 10 to 50
11 | O=C1CCC(N2Cc3ccc(CNC(=O)OCc4ccc(C(F)(F)F)nc4)cc3C2=O)C(=O)N1 (stereo not drawn) [Compound 66, [6-(trifluoromethyl)pyridin-3-yl]methyl N-{[2-(2,6-dioxopiperidin-3-yl)-3-oxo-2,3-dihydro-1H-isoindol-5-yl]methyl}carbamate] | ≤ 100 | 10 to 50
12 | CCC(COC(=O)NCc1ccc2c(c1)C(=O)N(C1CCC(=O)NC1=O)C2)c1ccccc1 (stereo not drawn) [Compound 67, 2-phenylbutyl N-{[2-(2,6-dioxopiperidin-3-yl)-3-oxo-2,3-dihydro-1H-isoindol-5-yl]methyl}carbamate] | 100 to 1000 | 10 to 50

Second part, the compound after the results:

Row | Ki (CRBN-DDB1) [nM] | Dmax (CDK2) [%] | Compound
13 | ≤ 100 | 10 to 50 | COc1ccc(COC(=O)NCc2ccc3c(c2)C(=O)N(C2CCC(=O)NC2=O)C3)cc1C(C)C (stereo not drawn) [Compound 47, [4-methoxy-3-(propan-2-yl)phenyl]methyl N-{[2-(2,6-dioxopiperidin-3-yl)-3-oxo-2,3-dihydro-1H-isoindol-5-yl]methyl}carbamate]
14 | ≤ 100 | 10 to 50 | O=C1CCC(N2Cc3ccc(CNC(=O)OCc4ccc(C5(F)COC5)cc4)cc3C2=O)C(=O)N1 (stereo not drawn) [Compound 48, [4-(3-fluorooxetan-3-yl)phenyl]methyl N-{[2-(2,6-dioxopiperidin-3-yl)-3-oxo-2,3-dihydro-1H-isoindol-5-yl]methyl}carbamate]
15 | ≤ 100 | 10 to 50 | CSc1ccc(COC(=O)NCc2ccc3c(c2)C(=O)N(C2CCC(=O)NC2=O)C3)cc1Cl (stereo not drawn) [Compound 49, [3-chloro-4-(methylsulfanyl)phenyl]methyl N-{[2-(2,6-dioxopiperidin-3-yl)-3-oxo-2,3-dihydro-1H-isoindol-5-yl]methyl}carbamate]
16 | ≤ 100 | 10 to 50 | Cc1ncsc1-c1ccc(COC(=O)NCc2ccc3c(c2)C(=O)N(C2CCC(=O)NC2=O)C3)cc1 (stereo not drawn) [Compound 52, [4-(4-methyl-1,3-thiazol-5-yl)phenyl]methyl N-{[2-(2,6-dioxopiperidin-3-yl)-3-oxo-2,3-dihydro-1H-isoindol-5-yl]methyl}carbamate]
17 | ≤ 100 | ≤ 10 | O=C1CCC(N2Cc3ccc(CNC(=O)OCc4ccc(CN5CCOCC5)cc4)cc3C2=O)C(=O)N1 (stereo not drawn) [Compound 55, {4-[(morpholin-4-yl)methyl]phenyl}methyl N-{[2-(2,6-dioxopiperidin-3-yl)-3-oxo-2,3-dihydro-1H-isoindol-5-yl]methyl}carbamate]
18 | ≤ 100 | 10 to 50 | O=C1CCC(N2Cc3ccc(CNC(=O)OCc4cccc(SC(F)(F)F)c4)cc3C2=O)C(=O)N1 (stereo not drawn) [Compound 56, {3-[(trifluoromethyl)sulfanyl]phenyl}methyl N-{[2-(2,6-dioxopiperidin-3-yl)-3-oxo-2,3-dihydro-1H-isoindol-5-yl]methyl}carbamate]
19 | ≤ 100 | 10 to 50 | O=C1CCC(N2Cc3ccc(CNC(=O)OCc4ccc(OC(F)(F)F)cc4F)cc3C2=O)C(=O)N1 (stereo not drawn) [Compound 57, [2-fluoro-4-(trifluoromethoxy)phenyl]methyl N-{[2-(2,6-dioxopiperidin-3-yl)-3-oxo-2,3-dihydro-1H-isoindol-5-yl]methyl}carbamate]
20 | ≤ 100 | 10 to 50 | COc1ccc(-c2cccc(COC(=O)NCc3ccc4c(c3)C(=O)N(C3CCC(=O)NC3=O)C4)c2)cc1 (stereo not drawn) [Compound 58, {4′-methoxy-[1,1′-biphenyl]-3-yl}methyl N-{[2-(2,6-dioxopiperidin-3-yl)-3-oxo-2,3-dihydro-1H-isoindol-5-yl]methyl}carbamate]
21 | ≤ 100 | 10 to 50 | CC(C)c1ccc(COC(=O)NCc2ccc3c(c2)C(=O)N(C2CCC(=O)NC2=O)C3)cc1 (stereo not drawn) [Compound 60, [4-(propan-2-yl)phenyl]methyl N-{[2-(2,6-dioxopiperidin-3-yl)-3-oxo-2,3-dihydro-1H-isoindol-5-yl]methyl}carbamate]
